Reference: US20080262044A1, “Pesticidal Mixtures” (Syngenta Participations AG, priority 2005, published 2008)

Experiments:
Spodoptera littoralis L2 = assay: Action against Spodoptera littoralis L2 (sprayed cotton leaves, petri dish); assay type: in vivo; details: 96 h
Description: The following day leaves were placed in petri dishes containing a moist filter paper and 10 L2 larvae placed on the leaves. Petri dishes were covered with gauze and closed with a lid and left at a temperature of 25° C., 40-60% relative humidity and 16L:8D conditions. Assessment of dead and alife larvae was performed after four days. (30 insects assessed per treatment).

[1] = test system: Aphis craccivora (nymphs); assay: Action against Aphis craccivora (nymphs), bean leaf disks; assay type: in vivo; details: foliar, 96 h, Table B4, Pyroquilon 1 ppm, WP 25, nymphs on bean leaf disks, after four days
Description: Fourteen day old bean plants (Vicia faba var. Wittkiens) were sprayed with 60 ml sample solution. The following day 3.5 cm leaf disks were cut and placed in petri dishes containing 2 ml agar (2%) and 5-10 adult aphids placed on the leaves. Petri dishes were covered with gauze and closed with a lid and placed up-side down. The following day all adult aphids were removed and only nymphs left on the leaf at a temperature of 20° C., 60% relative humidity and 16L:8D conditions. Assessment of dead and alife aphids performed after four days. (3 replicates per treatment).

For `O=C1CCc2cccc3c2N1CC3` [Pyroquilon, pyroquilon], the mortality at 1 ppm (Spodoptera littoralis L2; Table B1, Pyroquilon 1 ppm, WP 25, L2 larvae on cotton leaves, after four days) was 6.7%, the mortality at 10 ppm (Spodoptera littoralis L2; Table B3, Pyroquilon 10 ppm, WP 25, after four days) was 6.7% and the mortality at 1 ppm [1] was 3.3%.
